Reference: ChEMBL document CHEMBL3286256 (J Med Chem, 2014)
pKd: −log10 of the molar value.

What was measured:
[1] = target: T1, Retinal rod rhodopsin-sensitive cGMP 3',5'-cyclic phosphodiesterase subunit delta (Homo sapiens, UniProt O43924); test: Binding affinity to His6-tagged PDE-delta (unknown origin) measured every 3 mins by fluorescence polarization assay
[2] = target: T1, Retinal rod rhodopsin-sensitive cGMP 3',5'-cyclic phosphodiesterase subunit delta
Description: Binding affinity to PDE-delta (unknown origin) assessed as shift in melting temperature

T1 sequence (O43924 whole entry): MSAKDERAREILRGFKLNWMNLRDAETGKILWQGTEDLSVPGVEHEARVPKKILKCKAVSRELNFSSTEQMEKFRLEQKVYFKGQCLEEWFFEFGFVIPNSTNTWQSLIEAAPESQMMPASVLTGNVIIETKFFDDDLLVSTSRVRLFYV

SMILES | pKd [1] | ΔTm [2] [°C]
CC(C)c1nc(N(C)S(C)(=O)=O)nc(-c2ccc(F)cc2)c1/C=C/[C@@H](O)C[C@@H](O)CC(=O)O [ROSUVASTATIN] | 5.90 | –
c1ccc(Cn2c(-c3ccc(OCC(C4CCNCC4)n4c(-c5ccccc5)nc5ccccc54)cc3)nc3ccccc32)cc1 (stereo not given) | – | 20.5
CC(C)(C)OC(=O)N1CCC(C(COc2ccc(-c3nc4ccccc4n3Cc3ccccc3)cc2)n2c(-c3ccccc3)nc3ccccc32)CC1 (stereo not given) | < 5.70 | 7.2
C=CC(=O)N1CCC(c2nc3ccccc3n2Cc2ccccc2)CC1 | < 6.00 | –
